Among the test systems are TK-10 renal; KM12 colon; HCT-116 colon; OVCAR-5 ovarian.
Assay in all cases: DTP human tumour cell line panel, 48 h

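Results reflect a 48-hour exposure of cells in 96-well plates to compound at five concentrations. TGI: total growth inhibition.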

Take `CN(C)CCCNC(=O)N/N=C/c1ccc(O)cc1`: the TGI with TK-10 renal, in the test on KM12 colon, in the test with HCT-116 colon and in the test on OVCAR-5 ovarian was above 100 µM each time.
As for `Cn1c(N/N=C/c2ccccc2)nc(-c2ccc3c(c2)OCO3)c(C#N)c1=O`, the concentration for total growth inhibition (TGI) in the test on TK-10 renal, in the test with KM12 colon, with HCT-116 colon and with OVCAR-5 ovarian was above 100 µM throughout.
As for `O=C(N/N=C(/COc1ccccc1)N=Cc1ccncc1)c1ccncc1`, the TGI in the test with TK-10 renal, in the test with KM12 colon, in the test on HCT-116 colon and in the test on OVCAR-5 ovarian was above 100 µM each time.
As for `COC(CNC(=O)CNC(=O)c1ccc(C(F)(F)F)cc1)OC`, the TGI in the test with TK-10 renal, with KM12 colon, in the test with HCT-116 colon and with OVCAR-5 ovarian was above 100 µM throughout.
In the case of `NC(Cc1ccc(O)cn1)C(=O)NC(C(=O)O)c1ccccc1` (centres undefined), the TGI with TK-10 renal, in the test with KM12 colon, in the test with HCT-116 colon and with OVCAR-5 ovarian was above 100 µM each time.
For `Cc1ccc(C2(O)c3ccccc3C(=O)N(C)C2(O)c2ccc(C)cc2)cc1` (centres undefined), the TGI in the test with TK-10 renal, in the test on KM12 colon, in the test with HCT-116 colon and with OVCAR-5 ovarian was above 100 µM each time.
As to `CCOC(=O)Cc1c(C)c2ccc(OC(C)=O)c(OC(C)=O)c2oc1=O`, the TGI in the test with TK-10 renal is 65.2 µM; with KM12 colon it was above 100 µM; with HCT-116 colon it was above 100 µM; in the test on OVCAR-5 ovarian, above 100 µM.
Regarding `COc1c(C)c(C/C=C(\C)CC/C=C(\C)CC/C=C(\C)CCC=C(C)C)c(OC)c(OC)c1OC`, the TGI in the test on TK-10 renal, with KM12 colon, with HCT-116 colon and in the test with OVCAR-5 ovarian was above 100 µM each time.
`CC12NC(=C(C#N)C#N)C(C#N)=C3NC(N)=C(C#N)C(=C31)Oc1ccccc12` (centres undefined): the TGI in the test on TK-10 renal, in the test on KM12 colon, with HCT-116 colon and with OVCAR-5 ovarian was above 100 µM throughout.
As for `Cc1ccc(Nc2c3c(c(C#N)c4nc5ccccc5n24)CCCC3)cc1`, the TGI in the test with TK-10 renal was above 100 µM; in the test with KM12 colon it was above 100 µM; with HCT-116 colon, 36.8 µM; in the test on OVCAR-5 ovarian it was 95 µM.
With `COc1ccccc1N1CCN(CCCCNC(=O)c2ccc([N+](=O)[O-])o2)CC1`, the TGI with TK-10 renal was determined as 18.3 µM; with KM12 colon, 20.3 µM; with HCT-116 colon, 24.6 µM; in the test on OVCAR-5 ovarian it was 33.1 µM.
In the same order, the values of `Cc1ccc(S(=O)(=O)N(CC(O)COc2ccccc2)c2c(F)c(F)cc(F)c2F)cc1` (centres undefined) are 84.1 µM, 70.6 µM, above 100 µM and 76.3 µM.
With `COc1ccc2[nH]c3cc4c(=O)c5cc(OC)ccc5[nH]c4cc3c(=O)c2c1`, the TGI with TK-10 renal, in the test on KM12 colon, with HCT-116 colon and in the test on OVCAR-5 ovarian was above 100 µM each time.
As to `O=C1CC(c2ccc(Cl)cc2)C2(C(=O)NC(=S)NC2=O)C(c2ccc(Cl)cc2)C1` (centres undefined), the TGI with TK-10 renal was above 100 µM; in the test with KM12 colon it was 40.1 µM; with HCT-116 colon, 45.5 µM; in the test on OVCAR-5 ovarian, 47.7 µM.
As for `Cc1cccc2c(N)c3cccc(C(=O)NCC[N+](C)(C)Cc4ccc([N+](=O)[O-])n4C)c3nc12`, the TGI is above 100 µM in the test with TK-10 renal, 63.4 µM in the test with KM12 colon, 68.3 µM with HCT-116 colon and above 70.8 µM in the test on OVCAR-5 ovarian.
For `Cc1ccsc1/C=N/NC1=NCCN1`, in that order: above 100 µM, above 100 µM, above 100 µM and above 100 µM.
In the case of `COC(=O)[C@H](CNC(=O)/C=C/c1ccc(OC(C)=O)c(OC(C)=O)c1)NC(=O)/C=C/c1ccc(OC(C)=O)c(OC(C)=O)c1`, the TGI in the test on KM12 colon, in the test with HCT-116 colon and in the test with OVCAR-5 ovarian was above 100 µM in each case.
In the case of `CC(=O)Nc1ccc(NC(=O)CC(=O)Nc2ccc(NC(C)=O)cc2)cc1`, the TGI in the test with TK-10 renal, in the test with KM12 colon and with HCT-116 colon was above 100 µM in each case.
For the molecule `Cc1nc2cn3c(c2c(=O)[nH]1)CCCCC3`, the TGI in the test on TK-10 renal, in the test on KM12 colon and with HCT-116 colon was above 100 µM throughout.
Regarding `COc1cc(C2CC(C)(N3CCOCC3)Oc3cc4c(cc32)OCO4)cc(OC)c1OC` (centres undefined), the TGI with KM12 colon, with HCT-116 colon and with OVCAR-5 ovarian was above 100 µM throughout.
`COC(=O)C1OC(O[C@H]2CC[C@]3(C)[C@H]4CC=C5[C@@H]6CC(C)(C)CC[C@]6(C(=O)OC)CC[C@@]5(C)[C@]4(C)CC[C@H]3C2(C)C)C(O)C(O)C1O` (some centres undefined): the total growth inhibition concentration (TGI) with KM12 colon came out at 20.7 µM; in the test with HCT-116 colon, 26.2 µM; in the test on OVCAR-5 ovarian, 27.7 µM.

The values above are taken from PubChem BioAssay (NCI).
